The subject of experiment [1] is CLP mice. Nature of the experiment: Fear conditioning test after sepsis. Format: in vivo. How it is done:
Comportemental tests: Every comportemental tests were started 15 days after sepsis induction. The experimentator was blinded to the experimental group.
Fear conditioning. Mice underwent the classical fear conditioning test with a cued stimulus (auditory tone) and an uncued stimulus (electric shock). During two consecutive conditioning trials, 2 minutes resting followed by a 48s tone ([…] tone, 60 db) and 5 electrical footshocks of 2 joules during 2 seconds. Twenty four hours after conditioning, mice underwent the fear memory recall after exposition to a contextual stimulus (shock cage in the same configuration without auditory tone) or an auditory stimulus (Auditory tone in a different cage with a vanilla artificial odor). Freezing was evaluated for 2 seconds every 8 seconds and was defined as the absence of movement of the mouse with tail erection. Percentage of 10 seconds period freezing was reported to the total amount of freezing.

In experiment [2] the test system is primary murine microglial cells. Nature of the experiment: Cytokine transcription in LPS-activated primary microglial cells. Format: cell-based, C57/B16 mice. As to conditions: for increase of TNFalpha gene expression: p<0.0001; for IL6 gene expression: 24 hours. From the text: (§1) NO: 53) and anti-sense primer:[…] NO: 54). […] ID NO: 55) and anti-sense primer […] NO: 56). […] NO: 57) and anti-sense primer:[…] NO: 58).

Experiment [3] relates to CLP mice. Nature of the experiment: Elevated plus maze test after sepsis. It is filed as in vivo. Conditions: levetiracetam vs placebo treated CLP mice. The protocol: Elevated plus maze test: Mice home cage was placed in the experimental room 45 minutes prior any handling. Mice were placed in cross shaped 40 cm maze consisting in 2 open arms without walls and 2 closed arms with 30 cm opaque walls. Mice were tracked with ethovision XT during 5 minutes trials. The maximum velocity, total distance walked, number of entries in an open arm, and amount of time spent in an opened arm or in a closed arm were recorded. Datas are presented as Mean±SEM.
(§2) FIG. 2: Innate anxiety behavior and depressive phenotype was investigated with the elevated plus maze and splash test.

Experiment [4] deals with CLP mice. Nature of the experiment: Survival after cecal ligature and puncture (CLP) sepsis. It is filed as in vivo, C57Bl/6 mice. As to conditions: 300 mg/Kg intraperitoneously, within the first four days, placebo 53%, n=212, p<0.001. How it is done: Cecal ligature and puncture: Cecal ligature and puncture on mice were performed under general anesthesia. Briefly, C57Bl/6 mice were anesthetized with an intraperitoneal injection of Xylazine (20 mg/Kg, Rompun 2%, Bayer, Leverkusen, Germany), and Ketamine (100 mg/Kg, Imalgene, Mérial, Lyon, France) in 100 μl of saline solution at 0.9%. After anesthetic administration, mice were placed in a heated cage or surgical table upon awakening to maintain a body temperature at 37° C. Absence of reaction to leg and tail pinch were checked before incision of abdominal wall and peritoneum. Caecum was found with wet cotton swabs and exposed before loose ligation with Mersilk 4.0 (Ethicon, Cincinatti, USA), 2 transfixiant punctures were realized avoiding blood vessels with a 21G needle. Feces were expressed between cotton swabs before suturing abdominal muscles and peritoneum in 2 separate plans.
Analgesia and rehydration of mice were performed with buprenorphine (0.1 mg/Kg, Buprecare, Axience, Pantin, France) every 12 hours until complete recovery. […] Clinical scoring: Sepsis severity was evaluated twice a day until day 4, or normalization of «sepsis score», a previously described score that ranges from 1 to 12. […] Each item was scored 0 or 1, with a total score rang from 0 (normal) to 12 (highly severe). […]

Experiment [5] deals with CLP mice. Nature of the experiment: Sepsis score after CLP. Format: in vivo, C57Bl/6 mice. As to conditions: evaluated every 12 hours. The protocol:
Analgesia and rehydration of mice were performed with buprenorphine (0.1 mg/Kg, Buprecare, Axience, Pantin, France) every 12 hours until complete recovery. […] Clinical scoring: Sepsis severity was evaluated twice a day until day 4, or normalization of «sepsis score», a previously described score that ranges from […]. This score evaluates markers of local (abdominal spasm) and systemic reaction to sepsis (rectal temperature, fur erection, abnormal breathing), behavioural alterations (feces cleaning, presence of periocular dried eyedrop, incomplete palpebral opening, spontaneous activity in the cage, the escape attempt after tail grabbing) and signs of muscular weakness (grip strength, body tone, difficulty to walk). Each item was scored 0 or 1, with a total score rang from 0 (normal) to 12 (highly severe). For ethical reason, mice with a sepsis score ≥8 and a temperature ≤34.5° C. were euthanized as they were considered to almost certainly die within the 12 hours.
FIG. 1C. Sepsis score was evaluated every 12 hours (general state criteria, temperature, fur erection, respiratory rate, sickness behaviour, spontaneous activity in the home cage, lacrimation, palpebral closure, feces toilet, locomotor criteria, grip strength, difficulties walking, local reaction, abdominal wall contraction, axial body tone). Datas are presented as mean±SEM.

Experiment [6] has as its system CLP mice. Nature of the experiment: Splash test after sepsis. Format: in vivo. As to conditions: levetiracetam vs placebo treated CLP mice. The protocol:
Splash test: Mice were placed in a new cage 45 minutes before testing in the experimental room. They were then held onto a grid and 200 μl of sucrose 10% solution was spray on their back's fur. They were then placed in the home cage for 5 minutes. The latency before the first time mice groomed, the number of cleaning sessions and the total amount of time spent cleaning during the 5 minute test were measured. Mice were then placed back in their cage. Datas are presented as Mean±SEM.
as §2

The subject of a further experiment is Caspase 3. Nature of the experiment: Caspase 3 cleavage and apoptotic cell count in brain after sepsis. It is filed as in vivo. As to conditions: septic mice, Western blot cleaved caspase 3 vs procaspase 3, whole brain. A general note: In western blotting, separated proteins are transferred to a membrane and probed.
Experiment [7] deals with pro- and anti-inflammatory cytokine levels in Serum. Nature of the experiment: Cytokine multiplex in serum after sepsis. Format: in vivo, mice. Conditions: 24 hours after sepsis induction. How it is done:
Cytokine multiplex: Brain samples were weighed and unfrosted in 100 μl of extraction buffer (PBS 1×, complete protease inhibitor, sigma-aldrich, triton 0.1%) processed in 2 ml Lysing Matrix A tubes with FastPrep-24 (MP biomedicals, Germany). Tubes were centrifuged at 20000 g at 4° C. and supernatant was collected and protein concentration was determined with light absorbance at 280 nm using a Nanodrop Lite Spectrophotometer (Thermo Scientific). Sera were used undiluted. Cytokines were measured using a Bio-Plex System and Mouse Cytokine Standard 23-Plex Group 1 kit following manufacturer's recommendations. Raw datas were analyzed by dividing the concentration of cytokine with protein concentration in lyzate and weight of sample measured on precision balance. Then every cytokine concentrations are presented as a ratio compared to the untreated sepsis group.

The subject of experiment [8] is primary murine microglial cells. Nature of the experiment: Pro- and anti-inflammatory marker transcription in primary microglial cells exposed to LPS. Format: cell-based, C57/B16 mice. As to conditions: primary microglial cells after LPS exposure.
Description: as §1

Data on one compound can be found in patent US20220233503A1, “METHODS OF TREATING SEPSIS WITH SYNAPTIC VESICLE 2A AND/OR 2B BINDING CHEMICAL ENTITIES” (INSTITUT PASTEUR, priority 2016, published 2022).

Description for Caspase 3: A—Western Blot from cleaved caspase 3 from macerated brain parenchyma. B—Mean±SEM of ratios between intensity of cleaved caspase 3 vs. procaspase 3. […] D-G Cell count for late and early stage of apoptosis. WM Whitte matter, DG, Dentate Gyms, CC3 Cleaved Caspase 3.

Consider `CC[C@@H](C(N)=O)N1CCCC1=O` (single isomer, unassigned) [levetiracetam], for which, in the experiment with CLP mice [1] (between groups), the “motor response to electric shock during conditioning period” value was “did not differ”. Moreover, the auditory freezing time result in the experiment with CLP mice [1] (levetiracetam treated vs placebo treated CLP mice, p=0,024) was “lower”. Moreover, the “increase of TNFalpha gene expression” value in experiment [2] (high LPS (10 ng/mL), high dose levetiracetam (100 micrograms/mL), [0.86-0.30]) turned out to be 0.58; in experiment [2] (low LPS (1 ng/mL), low levetiracetam (10 micrograms/mL), [0.82-0.26]), 0.53. Further, the “decrease of TNFalpha gene expression” value in experiment [2] (high LPS (10 ng/mL), low dose levetiracetam (10 micrograms/mL), [0.10-0.66], p<0.01) came out at 0.38. Further, the IL6 gene expression in [2] (high-dose LPS (10 ng/mL), high-dose levetiracetam (100 micrograms/mL), [0.25-0.97], p<0.001) is reported as 0.61 fold; in experiment [2] (low-dose LPS challenge (1 ng/mL)), “did not modify”. Moreover, in experiment [2] (in vitro, activated microglial cell or not), the IL1 beta expression entry is “No effect”. In addition, in the experiment on CLP mice [3], the “innate anxiety (elevated plus maze)” value is reported as “No difference”. The survival rate with CLP mice [4] was determined as 81%. For the same compound, the “sepsis score vs placebo” value with CLP mice [5] is on record as “did not differ”. Besides, the “depressive phenotype (splash test)” value in the experiment with CLP mice [6] was “No difference”. Moreover, in the experiment on Caspase 3, the “cleavage of Caspase 3 in the brain” value is recorded as “reduces”. Further, in [7], the “cytokine concentration in plasma” value is “No significant effect”. Moreover, the “expression of anti and proinflammatory markers” value in experiment [8] was “modified”.
